# In article PMC12663734, “Sulfonamine-containing aurone derivatives act as inhibitors of intercellular movement of potato virus Y” (iScience, 2025):
# Columns and labels:
# PVY [1] = assay: Anti-PVY curative activity, half-leaf method; conditions: Potato virus Y, in Chenopodium amaranticolor, 120 h, read-out: Curative effect (%)
# Procedure: (§1) Owing to its non-host resistance to PVY, Chenopodium amaranticolor develops a hypersensitive response (HR) within 48–72 hours post-inoculation, producing sharply delimited chlorotic or necrotic local lesions on the inoculated leaves. The number of lesions correlates linearly and positively with virus titre, thereby serving as a quantitative indicator of viral virulence and of the inactivating efficacy of test compounds. The PVY viral extract was rubbed onto the surface of Nicotiana tabacum K326 leaves. After the characteristic symptoms of leaf wrinkling and inward curling appeared, the leaves were harvested and stored at -80°C, then purified according to previously reported methods.[50]^,[51]^,[52] Host leaves were ground to a fine powder in liquid nitrogen, followed by homogenization on ice in 0.5 M phosphate buffer. An equal volume of chloroform:n-butanol (1:1, v/v) corresponding to 10% of the total buffer volume was added, and the mixture was further homogenized on ice. After centrifugation at 10,000g for 20 minutes (4°C), the supernatant was collected as the crude PVY extract. Using 4–5-leaf-stage Chenopodium amaranticolor maintained under optimal growth conditions, a bioassay was conducted with two plants per treatment to systematically evaluate the curative, protective, and inactivating efficacy of the target compound against PVY.[53] […] Each compound was evaluated in three replicates, and the average value was calculated.
# Chenopodium amaranticolor was selected as the dead spot host. Excess leaves were first trimmed off, and a uniform layer of carborundum was applied to the leaf surface. The leaves were then inoculated by rubbing with a 1200-fold diluted virus solution. After more than an hour, the carborundum on the leaf surface was washed off with running water, and a 500 μg/mL drug solution was prepared. […] The treated plants were cultivated in a greenhouse for observation, and the number of dead spots on the leaves was counted after approximately 5 days.
# PVY [2] = assay: Anti-PVY protective activity, half-leaf method; conditions: Potato virus Y, in Chenopodium amaranticolor, 120 h, read-out: Protective effect (%)
# Procedure: as §1
# In contrast to the antiviral therapeutic activity, the leaves were first treated with the drug solution. A 500 μg/mL drug solution was applied to the right side of the leaves, with the left side serving as a control and treated with a 1% Tween 80 solution. After the leaves had dried under natural conditions, they were placed in a greenhouse for 24 hours before inoculation by rubbing with carborundum, following the same procedures as those for curative activity. After treatment, the plants were maintained in a greenhouse, and the number of local lesions on the inoculated leaves was recorded approximately 5 days.
# PVY [3] = assay: Anti-PVY inactivating activity, half-leaf method; conditions: Potato virus Y, in Chenopodium amaranticolor; for pest or weed control at 500 µg/mL: 120 h; for EC50: read-out: Inactivating effect EC50
# Procedure: as §1
# Two different dilutions of the virus solution (600-fold and 1200-fold) were prepared, along with a 1000 μg/mL drug solution. The drug solution was mixed with the 600-fold diluted virus solution on ice and incubated for 30 minutes. During the incubation period, the left side of the leaves was treated with a 1200-fold diluted virus solution. After the incubation was completed, the mixed system of drug and virus is inoculated on the right side of the leaf. After waiting for the infection to be completed, the carborundum on the leaf surface was washed off with running water, and the plants were then cultivated in a greenhouse. The number of dead spots on the leaves was counted after approximately 5 days.
# [4] = read-out: Inactivating effect (%), 500 μg/mL, host Chenopodium amaranticolor, average of three replicates
SMILES,pest or weed control at 500 µg/mL (PVY [1]) [%],pest or weed control at 500 µg/mL (PVY [2]) [%],pest or weed control at 500 µg/mL (PVY [3]; [4]) [%],EC50 (PVY [3]) [µg/mL],pest or weed control at 500 µg/mL (PVY [3]; read-out: Inactivating effect (%)) [%]
COc1cccc(/C=C2\Oc3cc(OCC(=O)NS(=O)(=O)c4ccc(Cl)cc4)ccc3C2=O)c1 [D5],41.7 ± 3.5,37.6 ± 4.8,60 to 80,,
COc1ccc(/C=C2\Oc3cc(OCC(=O)NS(=O)(=O)c4ccc(Cl)cc4)ccc3C2=O)cc1OC [D18],25.5 ± 4,38.2 ± 3,56.8 ± 2.8,,
COc1cc(OC)c(/C=C2\Oc3cc(OCC(=O)NS(=O)(=O)c4ccccc4)ccc3C2=O)c(OC)c1 [D31],42.9 ± 2.4,26.3 ± 2.6,57.4 ± 4.3,,
COc1ccc(/C=C2\Oc3cc(OCC(=O)NS(=O)(=O)c4ccc(C(F)(F)F)cc4)ccc3C2=O)c(OC)c1 [D38],36.7 ± 3.5,28 ± 4,33.3 ± 3.1,,
COc1ccccc1/C=C1\Oc2cc(OCC(=O)NS(=O)(=O)c3cccc(C(F)(F)F)c3)ccc2C1=O [D35],37.6 ± 1.8,39.9 ± 2.8,46.6 ± 2,,
COc1cccc(/C=C2\Oc3cc(OCC(=O)NS(=O)(=O)c4ccc(F)cc4)ccc3C2=O)c1OC [D27],45.1 ± 3.7,33.9 ± 2.3,60 to 80,,
COc1ccc(/C=C2\Oc3cc(OCC(=O)NS(=O)(=O)c4ccc(F)cc4)ccc3C2=O)cc1 [D10],24.4 ± 1.9,33.9 ± 4,43.7 ± 5,,
COc1ccc(/C=C2\Oc3cc(OCC(=O)NS(=O)(=O)c4cccc(C(F)(F)F)c4)ccc3C2=O)c(OC)c1 [D37],38.2 ± 2.2,29.8 ± 2.7,43.8 ± 3.2,,
COc1cc(OC)c(/C=C2\Oc3cc(OCC(=O)NS(=O)(=O)c4ccc(F)cc4)ccc3C2=O)c(OC)c1 [D29],36.7 ± 4,37.9 ± 2.7,57.1 ± 4.3,,
COc1ccc(OC)c(/C=C2\Oc3cc(OCC(=O)NS(=O)(=O)c4ccc(F)cc4)ccc3C2=O)c1 [D34],39.9 ± 3.7,36 ± 1.6,46.9 ± 2.4,,
COc1ccc(OC)c(/C=C2\Oc3cc(OCC(=O)NS(=O)(=O)c4ccc(Cl)cc4)ccc3C2=O)c1 [D33],41.2 ± 2.4,39.7 ± 2.7,51.1 ± 3.9,,
COc1ccc(/C=C2\Oc3cc(OCC(=O)NS(=O)(=O)c4cccc(C(F)(F)F)c4)ccc3C2=O)cc1 [D36],36.8 ± 2.2,33.9 ± 4.1,55.1 ± 2.8,,
COc1ccc(/C=C2\Oc3cc(OCC(=O)NS(=O)(=O)c4ccc(F)cc4)ccc3C2=O)cc1OC [D26],32.4 ± 1.7,40.2 ± 5,55.3 ± 3,,
COc1ccc(/C=C2\Oc3cc(OCC(=O)NS(=O)(=O)c4ccc(Br)cc4)ccc3C2=O)c(OC)c1 [D14],29.8 ± 4.8,37.9 ± 4.4,49.2 ± 4.2,,
COc1ccccc1/C=C1\Oc2cc(OCC(=O)NS(=O)(=O)c3ccccc3)ccc2C1=O [D4],43.1 ± 2.9,33.8 ± 1,60 to 80,,
COc1cccc(/C=C2\Oc3cc(OCC(=O)NS(=O)(=O)c4ccc(Br)cc4)ccc3C2=O)c1 [D16],29 ± 1.6,36.9 ± 2.4,42.9 ± 4.3,,
COc1cc(/C=C2\Oc3cc(OCC(=O)NS(=O)(=O)c4ccccc4)ccc3C2=O)cc(OC)c1 [D24],50.1 ± 1.8,31 ± 3,60 to 80,147 ± 11,
"CNCC(=O)N[C@@H](CO)C(=O)N[C@H]1[C@H](O)[C@@H](O)[C@H](n2ccc(N)nc2=O)O[C@@H]1C(N)=O [NNM, ningnanmycin, reference compound]",49 ± 3.9,49.1 ± 1.8,,54.3 ± 2.2,83.3 ± 1.2
